In article PMC10856454, “Discovery of Novel Antitumor Small-Molecule Agent with Dual Action of CDK2/p-RB and MDM2/p53” (Molecules, 2024):

Tests used:
CDK1 = target: T1, CDK1 (Homo sapiens, UniProt P06493); assay: Kinase antagonist activity assay (TR-FRET), CDK1; type: biochemical
T1 construct: purchased Thermo Fisher Scientific
Method: (§1) The compounds were solubilized with DMSO (Solarbio Life Sciences, Beijing, China), and 11 concentrations were serially diluted at 3-fold; 100 nL of compound was added to 384-well plates, 5 μL of 2 × enzyme mixture (Thermo Fisher Scientific, Waltham, MA, USA) was added, and 5 μL of buffer was added instead of the complete inhibition control wells. Then, 1000 rpm centrifugation was performed for 30 s followed by a 15 min incubation at 23 °C. Next, 5 μL of 2 × MLight-MBP peptide (PerkinElmer, Waltham, MA, USA) was added to each well, with 1000 rpm centrifugation for 30 s and incubation at 23 °C for 90 min. At the end of the incubation, the reaction was terminated with buffer containing 15 mM EDTA and 2 nM Eu-anti-P-MBP antibody (PerkinElmer, Waltham, MA, USA), centrifuged at 1000 rpm for 1 min, and incubated at 23 °C for 60 min; the plates were read on a Perkin Elmer Envision ([…]).

OVCAR3 cells [1] = assay: Colony formation, OVCAR3; type: cell-based; conditions: 14 days
Method: (§2) Cells were inoculated in six-well plates at 1000 cells per well, and III-13 was added in a dose-dependent manner after 24 h. Cells were stained with Crystal Violet Staining Solution (Beyotime, Shanghai, China) at 14 days after incubation, and the cell colonies were counted using Image J.

CDK6 = target: T2, CDK6 (Homo sapiens, UniProt Q00534); assay: Kinase antagonist activity assay (TR-FRET), CDK6; type: biochemical
T2 construct: purchased Thermo Fisher Scientific
T2 sequence (Q00534 whole entry): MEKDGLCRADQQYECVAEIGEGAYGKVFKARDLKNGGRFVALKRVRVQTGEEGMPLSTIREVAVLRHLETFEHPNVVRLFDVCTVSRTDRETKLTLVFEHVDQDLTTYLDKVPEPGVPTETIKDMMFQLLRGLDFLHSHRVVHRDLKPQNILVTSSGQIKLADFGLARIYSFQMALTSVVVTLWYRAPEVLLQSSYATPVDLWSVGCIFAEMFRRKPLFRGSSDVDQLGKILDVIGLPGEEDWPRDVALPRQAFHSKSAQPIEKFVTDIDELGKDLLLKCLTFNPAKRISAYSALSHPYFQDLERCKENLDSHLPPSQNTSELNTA
T2 sequence (P24385 whole entry partner): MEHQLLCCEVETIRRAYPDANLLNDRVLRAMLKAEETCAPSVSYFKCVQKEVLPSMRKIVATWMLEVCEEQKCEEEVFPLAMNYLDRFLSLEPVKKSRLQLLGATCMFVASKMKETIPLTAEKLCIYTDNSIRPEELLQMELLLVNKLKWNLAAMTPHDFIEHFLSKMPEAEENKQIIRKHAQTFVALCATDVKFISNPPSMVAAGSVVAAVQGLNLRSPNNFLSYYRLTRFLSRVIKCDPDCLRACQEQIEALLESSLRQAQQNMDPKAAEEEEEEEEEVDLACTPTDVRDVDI
Method: as §1

OVCAR3 cells [2] = assay: Cell cycle detection by flow cytometry, OVCAR3; type: cell-based; conditions: 24 h
Method: (§3) Cells were plated at 300,000 cells overnight in six-well plates. III-13 was added in a dose-dependent fashion and then cells were incubated for 24 h. The cells were then fixed with 75% ethanol overnight at 4 °C. The cells were centrifuged, and ethanol was removed. The cells were washed twice with 1 × PBS following staining with DAPI (4′, 6′ diamino-2-phenylindole) and analyzed using Guava easyCyte HT (Merck KGaA, Darmstadt, Germany) with a blue filter. Experiments were performed in triplicate.

HCT116 cells [3] = assay: Cell scratch test (migration), HCT116; type: cell-based; conditions: 24 h
Method: Cells were inoculated into six-well plates as long as they spread to the bottom of the wells after wall attachment. After 24 h of wall attachment, cells were scratched with a 200 μL pipette tip and then replaced with low serum medium (1% FBS) containing different concentrations of compounds. Spot photographs were taken at 0 h and 24 h after the scratch was made. Data analysis was performed using Adobe Photoshop 2021 (Adobe Systems Software Ireland Ltd., San Jose, CA, USA) and Image J2 (National Institutes of Health, Bethesda, MD, USA).

HCT116 cells [4] = assay: Colony formation, HCT116; type: cell-based; conditions: 14 days
Method: as §2

[5] = system: p-Rb, p-CDK2, MDM2, p53 in OVCAR3 cells; assay: Western blot of CDK2 pathway, MDM2 and p53 proteins in OVCAR3 cells; type: cell-based
Method: (§4) Total protein from HCT116, OVCAR3 cells and tissues was collected and homogenized in RIPA buffer. The total cellular protein extract was electrophoresed on 12% SDS-polyacrylamide gels and then transferred to a PVDF membrane (Thermo Fisher Scientific, Waltham, MA, USA). Primary antibodies were incubated overnight at 4 °C and secondary antibodies were incubated at room temperature for 1.5 h. Imaging was performed using Image Quant LAS4000 (GE, Boston, MA, USA).

CDK2 = target: T3, CDK2 (Homo sapiens, UniProt P24941); assay: Kinase antagonist activity assay (TR-FRET), CDK2; type: biochemical
T3 construct: purchased Thermo Fisher Scientific
Method: as §1

OVCAR3 cells [6] = assay: Cell proliferation assay (Celltiter-Glo), OVCAR3; type: cell-based; conditions: Homo sapiens, OVCAR-3, 120 h; OVCAR3 (overexpression of CCNE1), five days
Method: (§5) Celltiter-Glo Luminescent Cell Viability Assay (Promega, Madison, WI, USA) was used to detect cell viability according to the manufacturer’s instructions. This assay is a homogeneous method of determining the number of viable cells in a culture based on quantitation of the ATP present, an indicator of metabolically active cells. Cells were digested and paved in white-bottomed 96-well plates with 1000 cells/100 μL cell suspension solution; then, different concentrations of compounds were added the next day. TOV-21G and HCT116 were placed in the incubator for three days and OVCAR3 for five days. Then, 100 μL Celltiter-Glo solution was added and mixed for 5 min; the luminous intensity of each well was detected with a spectrophotometer (BioTek, Winooski, VT, USA). The experiment was repeated three times to calculate the cell survival rate.

[7] = system: HCT116 transplanted tumor; assay: Tumor xenograft experiment, nude mouse model of HCT116 transplanted tumor; type: in vivo, Balb/c nude mice
Method: (§6) HCT116 cells (1 × 10^6) were implanted into the back of adult male Balb/c nude mice by subcutaneous injection. […] The solvent or drug containing solution was administered daily to the vehicle and dosing groups by intraperitoneal injection (0.2 mL/20 g). Tumor growth was measured every three days during treatment. At the end of the treatment, the mice were killed, and the tumors were removed and weighed.

[8] = Liver microsomal stability, human; type: in vitro ADME; conditions: Human liver microsomes
Method: (§7) Compounds were incubated with mouse, rat, and human liver microsomal samples and NADPH at 37 °C for 5, 10, 20, 30, or 60 min. The reaction was terminated with a cold acetonitrile solution containing tolbutamide. Compound retention was determined by LC-MS/MS. The retention times, chromatographic acquisition, and chromatographic integration of compounds and positive control substances were analyzed using Analyst (AB Sciex, Framingham, MA, USA).

[9] = system: p-Rb, MDM2, p53 in HCT116 transplanted tumors; assay: Western blot of transplanted tumor tissues of nude mice; type: in vivo, Balb/c nude mice; conditions: Western blot of tumor tissue
Method: as §4, §6

HCT116 cells [10] = assay: Cell cycle detection by flow cytometry, HCT116; type: cell-based; conditions: 24 h
Method: as §3

[11] = system: p-Rb, p-CDK2 in HCT116 cells; assay: Western blot of CDK2 pathway proteins in HCT116 cells; type: cell-based
Method: as §4

TOV-21G cells = assay: Cell proliferation assay (Celltiter-Glo), TOV-21G; type: cell-based; conditions: Homo sapiens, TOV21G, 72 h; TOV-21G (normal expression of CCNE1), three days
Method: as §5

[12] = Liver microsomal stability, rat; type: in vitro ADME; conditions: Rat liver microsomes
Method: as §7

[13] = 50 mg/kg, intraperitoneal daily, 14 days

T1 sequence (P06493 whole entry): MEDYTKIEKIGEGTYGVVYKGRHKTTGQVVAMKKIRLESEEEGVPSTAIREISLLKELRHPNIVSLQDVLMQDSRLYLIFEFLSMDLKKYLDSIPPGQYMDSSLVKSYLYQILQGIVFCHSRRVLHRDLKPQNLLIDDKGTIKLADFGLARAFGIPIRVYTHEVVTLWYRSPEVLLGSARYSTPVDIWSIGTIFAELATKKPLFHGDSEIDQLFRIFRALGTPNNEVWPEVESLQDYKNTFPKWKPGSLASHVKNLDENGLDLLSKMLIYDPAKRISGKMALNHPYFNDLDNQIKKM
T1 sequence (P14635 whole entry partner): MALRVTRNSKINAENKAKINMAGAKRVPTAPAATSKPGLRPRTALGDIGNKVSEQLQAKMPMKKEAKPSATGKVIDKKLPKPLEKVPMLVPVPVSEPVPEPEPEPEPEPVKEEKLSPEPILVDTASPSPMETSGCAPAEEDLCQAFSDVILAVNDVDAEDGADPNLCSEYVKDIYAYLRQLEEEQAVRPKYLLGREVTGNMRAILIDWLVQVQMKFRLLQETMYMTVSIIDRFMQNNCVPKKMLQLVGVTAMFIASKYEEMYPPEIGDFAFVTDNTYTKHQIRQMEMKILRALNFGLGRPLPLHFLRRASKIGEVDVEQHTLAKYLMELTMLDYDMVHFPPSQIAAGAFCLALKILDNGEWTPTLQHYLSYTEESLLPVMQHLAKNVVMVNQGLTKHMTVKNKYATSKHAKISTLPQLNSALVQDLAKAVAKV

IC50 (CDK1): 528 nM | IC90 (CDK1): 5640 nM | IC50 (CDK6): 1300 nM | IC90 (CDK6): 16000 nM | IC50 (CDK2): 2.6 nM | IC90 (CDK2): 26.2 nM | IC50 (OVCAR3 cells [6]): 115 nM | IC90 (OVCAR3 cells [6]): 398 nM | weight loss in mice ([7]; 14 days of treatment): did not cause significant weight loss | CLint scaled [8]: 59.9 mL/min/kg | Remaining (T = 60 min) ([8]; 60 min): 15.4% | half-life ([8]; NADPH, 37 °C): 21.9 min | CLint scaled [12]: 88.9 mL/min/kg | Remaining (T = 60 min) ([12]; 60 min): 22.8% | half-life ([12]; NADPH, 37 °C): 28.1 min
Compound: CC1(C)CCN1C(=O)O[C@@H]1CC[C@H](c2cc(NC(=O)Cc3ccc(N4CCCC4=O)cc3)n[nH]2)C1 [III-13]
number of colonies (OVCAR3 cells [1]): significant reduction | cell cycle arrest (OVCAR3 cells [2]): arrested HCT116 and OVCAR3 cells in the G0/G1 phase | migration rate (HCT116 cells [3]): decreased significantly | number of colonies (HCT116 cells [4]): significant reduction | MDM2 protein expression [5]: inhibited | p53 expression [5]: significantly elevated | expression of p-Rb ([5]; OVCAR3 cells): significantly reduced | p-CDK2 expression ([5]; OVCAR3 cells): no significant effect | tumor volume reduced by [7, 13]: ~69.81% | tumor weight reduced by [7, 13]: ~60.16% | tumor volume ([7]; both 25 and 50 mg/kg, intraperitoneal daily, 14 days): significantly reduced | level of MDM2 in transplanted tumors [9]: significantly down-regulated | level of p53 protein in transplanted tumors [9]: up-regulated | level of p-Rb in the transplanted tumors [9]: significantly reduced | cell cycle arrest (HCT116 cells [10]): arrested HCT116 and OVCAR3 cells in the G0/G1 phase | expression of p-Rb [11]: significantly reduced | p-CDK2 expression [11]: no significant effect | IC50 (TOV-21G cells): 164 nM
